target: T1, cloned human CCR8 receptor stably expressed in L1.2 cells (Homo sapiens, UniProt P51685); assay: whole cell binding screen: inhibition of biotinylated human I309 binding to CCR8 (FMAT 8100 HTS); conditions: Ki of compounds to inhibit I-309 binding to CCR8, L1.2/hCCR8 cells, biotinylated human I-309, 10 point concentration response starting at 10 μM
T1 construct: expressed in transfected cells
Outline: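 L1.2 murine pre-B cells stably expressing human CCR8 (4.0×10^5 cells/mL) in HBSS/HEPES/fatty-acid-free BSA/azide buffer were mixed with biotinylated human I309 and compounds for 0.5 h, read by FMAT fluorescence. 10-point curves from 10 μM final; percent inhibition normalized to no-inhibitor and 100 nM unlabeled I309 controls.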

T1 sequence (P51685 whole entry): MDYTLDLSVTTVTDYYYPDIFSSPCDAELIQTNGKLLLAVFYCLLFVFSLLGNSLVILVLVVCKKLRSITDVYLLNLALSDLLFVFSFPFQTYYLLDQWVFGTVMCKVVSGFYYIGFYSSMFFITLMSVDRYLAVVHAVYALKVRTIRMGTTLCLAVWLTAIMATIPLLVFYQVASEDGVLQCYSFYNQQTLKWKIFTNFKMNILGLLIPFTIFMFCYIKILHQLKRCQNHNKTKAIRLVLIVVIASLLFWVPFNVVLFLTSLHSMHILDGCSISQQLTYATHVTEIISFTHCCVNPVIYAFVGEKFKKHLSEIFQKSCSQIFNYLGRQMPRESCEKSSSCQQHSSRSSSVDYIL

`CCOC(=O)N1CCC(NS(=O)(=O)c2ccc(NC(=O)N3CCCCC3)c3ccccc23)CC1` [Compound B-14, 4-{4-[(Piperidine-1-carbonyl)-amino]-naphthalene-1-sulfonylamino}-piperidine-1-carboxylic acid ethyl ester] and `Cc1ccccc1C(=O)Nc1ccc(S(=O)(=O)NC2CCN(C(=N)N3CCCC3)CC2)c2ccccc12` [Compound C-40, N-{4-[1-(Imino-pyrrolidin-1-yl-methyl)-piperidin-4-ylsulfamoyl]-naphthalen-1-yl}-2-methyl-benzamide] cannot be ordered by Ki: less than 500 nM for the first, less than 500 nM for the second.

`Cc1ccccc1C(=O)Nc1ccc(S(=O)(=O)NC2CCN(C(=O)N(C)C)CC2)c2ccccc12` [Compound C-47, 4-[4-(2-Methyl-benzoylamino)-naphthalene-1-sulfonylamino]-piperidine-1-carboxylic acid dimethylamide] and `Cc1ccccc1C(=O)Nc1ccc(S(=O)(=O)NC2CCN(C(=O)[C@@H]3CCCN3)CC2)c2ccccc12` [Compound C-125, (S)-2-Methyl-N-{4-[1-(pyrrolidine-2-carbonyl)-piperidin-4-ylsulfamoyl]-naphthalen-1-yl}-benzamide] cannot be ordered by Ki: less than 500 nM for the first, less than 500 nM for the second.

`COc1ccc(NS(=O)(=O)c2ccc(N(C)C(=O)c3ccccc3)c3ccccc23)cc1` [Compound B-33, N-[4-(4-Methoxy-phenylsulfamoyl)-naphthalen-1-yl]-N-methyl-benzamide] and `CCOC(=O)N1CCC(NS(=O)(=O)c2ccc(C(=O)Nc3ccccc3C)c3ccccc23)CC1` [Compound F-11, 4-(4-o-Tolylcarbamoyl-naphthalene-1-sulfonylamino)-piperidine-1-carboxylic acid ethyl ester] cannot be ordered by Ki: less than 30000 nM for the first, less than 500 nM for the second.

same assay, conditions: L1.2/hCCR8 cells, biotinylated human I-309, 10 point concentration response starting at 10 μM; read-out: Ki of compounds to inhibit I-309 binding to CCR8

`Cc1ccccc1C(=O)Nc1ccc(S(=O)(=O)NC2[C@@H](C)CN(Cc3ccccc3)C[C@@H]2C)c2ccccc12` (racemic) [Compound A-45, (±)-(cis, trans)-N-[4-(1-Benzyl-3,5-dimethyl-piperidin-4-ylsulfamoyl)-naphthalen-1-yl]-2-methyl-benzamide] and `Cc1ccccc1C(=O)Nc1ccc(S(=O)(=O)N[C@H]2CCNC[C@H]2C)c2ccccc12` (racemic) [Compound C-28, (±)-cis-2-Methyl-N-[4-(3-methyl-piperidin-4-ylsulfamoyl)-naphthalen-1-yl]-benzamide] cannot be ordered by Ki: less than 30000 nM for the first, less than 1000 nM for the second.

`CCN1CCC(NS(=O)(=O)c2cccc3c(NC(=O)c4ccccc4C)cccc23)CC1` [Compound H-14, N-[5-(1-Ethyl-piperidin-4-ylsulfamoyl)-naphthalen-1-yl]-2-methyl-benzamide] and `CCOC(=O)N1CC[C@H](NS(=O)(=O)c2cccc3c(C(=O)Nc4ccccc4C)cccc23)[C@@H](C)C1` (racemic) [Compound H-40, (±)-trans-3-Methyl-4-(5-o-tolylcarbamoyl-naphthalene-1-sulfonylamino)-piperidine-1-carboxylic acid ethyl ester] cannot be ordered by Ki: less than 500 nM for the first, less than 500 nM for the second.

`COc1ccc(NS(=O)(=O)c2ccc(NC(=O)c3ccc([N+](=O)[O-])cc3)c3ccccc23)cc1` [Compound B-3, N-[4-(4-Methoxy-phenylsulfamoyl)-naphthalen-1-yl]-4-nitro-benzamide] and `CC(C)c1ccc(NS(=O)(=O)c2ccc(NC(=O)c3ccccc3)c3ccccc23)cc1` [Compound A-28, N-[4-(4-Isopropyl-phenylsulfamoyl)-naphthalene-1-yl]-benzamide] cannot be ordered by Ki: less than 30000 nM for the first, less than 500 nM for the second.

`Cc1ccccc1C(=O)Nc1ccc(S(=O)(=O)NCCCN2CCCC2=O)c2c1CCCC2` [Compound E-24, 2-Methyl-N-{4-[3-(2-oxo-pyrrolidin-1-yl)-propylsulfamoyl]-5,6,7,8-tetrahydro-naphthalen-1-yl}-benzamide] and `CCOC(=O)N1CC[C@H](NS(=O)(=O)c2ccc(NC(=O)c3ccccc3C)c3c2CCCC3)[C@H](C)C1` (racemic) [Compound E-21, (±)-cis-3-Methyl-4-[4-(2-methyl-benzoylamino)-5,6,7,8-tetrahydro-naphthalene-1-sulfonylamino]-piperidine-1-carboxylic acid ethyl ester] cannot be ordered by Ki: less than 1000 nM for the first, less than 500 nM for the second.

`CCCC(=O)N1CCC(NS(=O)(=O)c2ccc(C(=O)Nc3cccc(C)c3)c3ccccc23)CC1` [Compound F-26, 4-(1-Butyryl-piperidin-4-ylsulfamoyl)-naphthalene-1-carboxylic acid m-tolylainde] and `CCCC(=O)N1CC[C@H](NS(=O)(=O)c2ccc(NC(=O)c3ccccc3C)c3ccccc23)[C@H](C(=O)O)C1` (racemic) [Compound C-78, (±)-(cis)-1-Butyryl-4-[4-(2-methyl-benzoylamino)-naphthalene-1-sulfonylamino]-piperidine-3-carboxylic acid] cannot be ordered by Ki: less than 500 nM for the first, less than 30000 nM for the second.

`Cc1ccccc1C(=O)Nc1ccc(S(=O)(=O)N[C@H]2CCN(C(=O)C(C)(C)N)C[C@H]2C)c2ccccc12` [Compound J-8, (3R, 4S)-N-{4-[1-(2-Amino-2-methyl-propionyl)-3-methyl-piperidin-4-ylsuffamoyl]-naphthalen-1-yl}-2-methyl-benzamide] and `Cc1ccccc1C(=O)Nc1ccc(S(=O)(=O)N[C@@H]2CCN(C(=O)CN3CCCCC3)C[C@@H]2C)c2ccccc12` (racemic) [Compound C-143, (±)-2-Methyl-N-{4-[cis-3-methyl-1-(2-piperidin-1-yl-aceyl)-piperidin-4-ylsulfamoyl]-naphthalen-1-yl}-benzamide] cannot be ordered by Ki: less than 500 nM for the first, less than 30000 nM for the second.

`Cc1ccccc1C(=O)Nc1ccc(S(=O)(=O)NC2CCN(C(=O)OC(C)C)CC2)c2c1CCC2` [Compound H-70, 4-[7-(2-Methyl-benzoylamino)-indane-4-sulfonylamino]-piperidine-1-carboxylic acid isopropyl ester] and `CCOC(=O)N1CCC(NS(=O)(=O)c2ccc(NC(=O)c3ccccc3C)c3c2CN(CC)CC3)CC1` [Compound J-42, 4-[2-Ethyl-5-(2-methyl-benzoylamno)-1,2,3,4-tetrahydro-isoquinoline-8-sulfonylamino]-piperidine-1-carboxylic acid ethyl ester] cannot be ordered by Ki: less than 500 nM for the first, less than 500 nM for the second.

`Cc1ccccc1C(=O)Nc1ccc(S(=O)(=O)N[C@H]2CCNC[C@@H]2CC(C)C)c2ccccc12` [Compound J-56] and `Cc1ccccc1C(=O)Nc1ccc(S(=O)(=O)N[C@H]2CCNC[C@H]2CC(C)C)c2ccccc12` [Compound J-52] cannot be ordered by Ki: less than 5000 nM for the first, less than 500 nM for the second.

`CC(C)NS(=O)(=O)c1ccc(NC(=O)c2ccccc2)c2ccccc12` [Compound A-11, N-(4-Isopropylsulfamoyl-naphthalen-1-yl)-benzamide] and `CCc1ccc(NS(=O)(=O)c2cccc3c(NC(=O)c4ccccc4)cccc23)cc1` [Compound H-2, N-[5-(4-Ethyl-phenylsulfamoyl)-naphthalen-1-yl]-benzamide] cannot be ordered by Ki: less than 30000 nM for the first, less than 30000 nM for the second.

`CCOC(=O)N1CCC(NS(=O)(=O)c2ccc(CNC3CCN(C)CC3)c3ccccc23)CC1` [Compound G-25, 4-{4-[(1-Methyl-piperidin-4-ylamino)-methyl]-naphthalene-1-sulfonylamino}-piperidine-1-carboxylic acid ethyl ester] and `CCOC(=O)N1CCC(NS(=O)(=O)c2ccc(CN(CC)C3CCCCC3)c3ccccc23)CC1` [Compound G-20, 4-{4-[(Cyclohexyl-ethyl-amino)-methyl]-naphthalene-1-sulfonylamino}-piperidine-1-carboxylic acid ethyl ester] cannot be ordered by Ki: less than 30000 nM for the first, less than 500 nM for the second.

`O=S(=O)(NC1CCCCC1)c1ccc(CNC2CCCCC2)c2ccccc12` [Compound G-31, 4-Cyclohexylaminomethyl-naphthalene-1-sulfonic acid cyclohexylamide] and `O=C(NC1CCCCC1)c1ccc(S(=O)(=O)NC2CCNCC2)c2ccccc12` [Compound F-2, 4-(Piperidin-4-ylsulfamoyl)-naphthalene-1-carboxylic acid cyclohexylamide] cannot be ordered by Ki: less than 500 nM for the first, less than 30000 nM for the second.

`CCOC(=O)N1CCC(NS(=O)(=O)c2ccc(CNCc3ccoc3)c3ccccc23)CC1` [Compound G-14, 4-(4-{[(Furan-3-ylmethyl)-amino]-methyl}-naphthalene-1-sulfonylamino)-piperidine-1-carboxylic acid ethyl ester] and `CCOC(=O)N1CCC(NS(=O)(=O)c2ccc(C(=O)N(C)C3CCCCC3)c3ccccc23)CC1` [Compound F-27, 4-[4-(Cyclohexyl-methyl-carbamoyl)-naphthalene-1-sulfonylamino]-piperidine-1-carboxylic acid ethyl ester] cannot be ordered by Ki: less than 500 nM for the first, less than 500 nM for the second.

`O=C(Nc1ccc(S(=O)(=O)NC2CCN(C(=O)N3CCOCC3)CC2)c2ccccc12)c1ccccc1` [Compound C-4, N-{4-[1-(Morpholine-4-carbonyl)-piperidin-4-ylsulfamoyl]-naphthalen-1-yl}-benzamide] and `Cc1ccccc1C(=O)Nc1ccc(S(=O)(=O)NC2CCN(C(=O)N3CCCC3)CC2)c2c1CCCC2` [Compound E-11, 2-Methyl-N-{4-[1-(pyrrolidine-1-carbonyl)-piperidin-4-ylsulfamoyl]-5,6,7,8-tetrahydro-naphthalen-1-yl}-benzamide] cannot be ordered by Ki: less than 500 nM for the first, less than 500 nM for the second.

`CC(C)c1ccc(NS(=O)(=O)c2ccc3cccc(NC(=O)c4ccccc4)c3c2)cc1` [Compound H-50, N-[7-(4-Isopropyl-phenylsuffamoyl)-naphthalen-1-yl]-benzamide] and `Cc1ccccc1C(=O)Nc1ccc(S(=O)(=O)NC2(C)CCN(C(=O)OC(C)C)CC2)c2ccccc12` [Compound C-26, 4-Methyl-4-[4-(2-methyl-benzoylaminno)-naphthalene-1-sulfonylamino]-piperidine-1-carboxylic acid isopropyl ester] cannot be ordered by Ki: less than 30000 nM for the first, less than 500 nM for the second.

Molecule `CCOC(=O)N1CC[C@H](NS(=O)(=O)c2ccc(NC(=O)c3cccnc3C)c3ccccc23)[C@H](C)C1` (racemic) [Compound D-6, (±)-(cis)-3-Methyl-4-{4-[(2-methyl-pyridine-3-carbonyl)-amino]-naphthalene-1-sulfonylamino}-piperidine-1-carboxylic acid ethyl ester] has a Ki of less than 500 nM.

From patent US7491827B2, “Aryl sulfonamides useful as inhibitors of chemokine receptor activity” (Millennium Pharmaceuticals, Inc., priority 2003, dated 2009)
